According to ChEMBL document CHEMBL3137667, “[Drug-induced liver injury; fourteenth updated edition of the bibliographic database of liver injuries and related drugs]” (Gastroenterol Clin Biol, 2004):

Legend:
[1] = human
[2] = human; remark: listed apart in the source
[3] = human, serum
[4] = human; remark: listed apart in the source
[5] = human; remark: listed apart in the source
[6] = Highest frequency of moderate liver toxicity observed during clinical trials, expressed as a percentage. [column '% BIOL' in source]; conditions: human
[7] = human; remark: listed apart in the source
[8] = human, serum, 4383 h
[9] = human, serum; remark: listed apart in the source
[10] = human; remark: listed apart in the source
[11] = human; remark: listed apart in the source
[12] = Highest frequency of acute liver toxicity observed during clinical trials, expressed as a percentage. [column '% AIGUE' in source]; conditions: human
[13] = human; remark: listed apart in the source
[14] = human; remark: listed apart in the source
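Wherever Hepatotoxicity (association with vascular disease) is given: count of indexed literature references reporting vascular liver injury in humans, e.g. peliosis hepatitis, hepatic veno-occlusive disease or Budd-Chiari syndrome.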
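Wherever Hepatotoxicity (benign tumour) is given: value is a count of indexed literature references citing a benign tumour confirmed by histopathology.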
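Wherever Hepatotoxicity (choleostasis) is given: human cholestatic liver injury, shown by histopathology or by peak ALT or AST elevation over alkaline phosphatase ratio below 2, value counts indexed literature reports.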
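Wherever Hepatotoxicity (chronic liver disease) is given: chronic liver injury confirmed by histopathology or persistently raised serum aminotransferase activity beyond 6 months, value given as the count of indexed literature references.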
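Wherever Hepatotoxicity (cirrhosis) is given: value is a count of indexed literature references reporting cirrhosis confirmed by histopathology.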
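Wherever Hepatotoxicity (cytolytic) is given: human cytolytic liver injury, shown by histopathology or by a ratio above 5 of peak ALT or AST elevation to alkaline phosphatase elevation, value counts indexed references.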
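Wherever Hepatotoxicity (granulomatous hepatitis) is given: value is a count of indexed literature references reporting granulomatous liver disease confirmed by histopathology.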
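Wherever Hepatotoxicity (malignant tumour) is given: malignant tumour confirmed by histopathology, value gives the count of indexed literature references reporting it.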
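Wherever Hepatotoxicity (severe hepatitis) is given: human clinical data: severe hepatitis, meaning potentially life-threatening liver failure or clinically observed cases, the value counts how many indexed literature references report it.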
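Wherever Hepatotoxicity (steatosis) is given: steatosis confirmed by histopathology, value is the count of indexed references.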

SMILES: CCCC(=O)O[C@H]1[C@H](C)O[C@@H](O[C@H]2[C@H](N(C)C)[C@@H](O)[C@H](O[C@H]3[C@@H](CC=O)C[C@@H](C)[C@@H](O)/C=C/C=C/C[C@@H](C)OC(=O)C[C@@H](O)[C@@H]3OC)O[C@@H]2C)C[C@@]1(C)OC(=O)CC [ROKITAMYCIN]
- Hepatotoxicity (association with vascular disease) [1]: 0
- Hepatotoxicity (choleostasis) [2]: 0
- Hepatotoxicity (moderate) [3]: 4
- Hepatotoxicity (cytolytic) [4]: 0
- Hepatotoxicity (steatosis) [5]: 0
- Hepatotoxicity (moderate) [6]: 5%
- Hepatotoxicity (malignant tumour) [7]: 0
- Hepatotoxicity (chronic liver disease) [8]: 0
- Hepatotoxicity (acute) [9]: 0
- Hepatotoxicity (cirrhosis) [10]: 0
- Hepatotoxicity (granulomatous hepatitis) [11]: 0
- Hepatotoxicity (acute) [12]: 0%
- Hepatotoxicity (benign tumour) [13]: 0
- Hepatotoxicity (severe hepatitis) [14]: 0

SMILES: CC(C)c1nc(N(C)S(C)(=O)=O)nc(-c2ccc(F)cc2)c1/C=C/[C@@H](O)C[C@@H](O)CC(=O)O [ROSUVASTATIN]
- Hepatotoxicity (association with vascular disease) [1]: 0
- Hepatotoxicity (choleostasis) [2]: 0
- Hepatotoxicity (moderate) [3]: 0
- Hepatotoxicity (cytolytic) [4]: 1
- Hepatotoxicity (steatosis) [5]: 0
- Hepatotoxicity (moderate) [6]: 0%
- Hepatotoxicity (malignant tumour) [7]: 0
- Hepatotoxicity (chronic liver disease) [8]: 0
- Hepatotoxicity (acute) [9]: 1
- Hepatotoxicity (cirrhosis) [10]: 0
- Hepatotoxicity (granulomatous hepatitis) [11]: 0
- Hepatotoxicity (acute) [12]: 0.1%
- Hepatotoxicity (benign tumour) [13]: 0
- Hepatotoxicity (severe hepatitis) [14]: 0

SMILES: Oc1ccc2[nH]cc(CCCCN3CC=C(c4ccccc4)CC3)c2c1 [ROXINDOLE]
- Hepatotoxicity (association with vascular disease) [1]: 0
- Hepatotoxicity (choleostasis) [2]: 0
- Hepatotoxicity (moderate) [3]: 1
- Hepatotoxicity (cytolytic) [4]: 0
- Hepatotoxicity (steatosis) [5]: 0
- Hepatotoxicity (moderate) [6]: 10%
- Hepatotoxicity (malignant tumour) [7]: 0
- Hepatotoxicity (chronic liver disease) [8]: 0
- Hepatotoxicity (acute) [9]: 0
- Hepatotoxicity (cirrhosis) [10]: 0
- Hepatotoxicity (granulomatous hepatitis) [11]: 0
- Hepatotoxicity (acute) [12]: 0%
- Hepatotoxicity (benign tumour) [13]: 0
- Hepatotoxicity (severe hepatitis) [14]: 0

SMILES: OCc1cc(C(O)CNCCCCCCOCCCCc2ccccc2)ccc1O (stereo not given) [SALMETEROL]
- Hepatotoxicity (association with vascular disease) [1]: 0
- Hepatotoxicity (choleostasis) [2]: 0
- Hepatotoxicity (moderate) [3]: 1
- Hepatotoxicity (cytolytic) [4]: 0
- Hepatotoxicity (steatosis) [5]: 0
- Hepatotoxicity (moderate) [6]: 1.8%
- Hepatotoxicity (malignant tumour) [7]: 0
- Hepatotoxicity (chronic liver disease) [8]: 0
- Hepatotoxicity (acute) [9]: 0
- Hepatotoxicity (cirrhosis) [10]: 0
- Hepatotoxicity (granulomatous hepatitis) [11]: 0
- Hepatotoxicity (acute) [12]: 0%
- Hepatotoxicity (benign tumour) [13]: 0
- Hepatotoxicity (severe hepatitis) [14]: 0

SMILES: O=C1NCCN1CCN1CCC(c2cn(-c3ccc(F)cc3)c3ccc(Cl)cc23)CC1 [SERTINDOLE]
- Hepatotoxicity (association with vascular disease) [1]: 0
- Hepatotoxicity (choleostasis) [2]: 0
- Hepatotoxicity (moderate) [3]: 1
- Hepatotoxicity (cytolytic) [4]: 0
- Hepatotoxicity (steatosis) [5]: 0
- Hepatotoxicity (moderate) [6]: 1.4%
- Hepatotoxicity (malignant tumour) [7]: 0
- Hepatotoxicity (chronic liver disease) [8]: 0
- Hepatotoxicity (acute) [9]: 0
- Hepatotoxicity (cirrhosis) [10]: 0
- Hepatotoxicity (granulomatous hepatitis) [11]: 0
- Hepatotoxicity (acute) [12]: 0%
- Hepatotoxicity (benign tumour) [13]: 0
- Hepatotoxicity (severe hepatitis) [14]: 0

SMILES: CN[C@@H]1[C@@H](O)[C@@H](O[C@@H]2[C@@H](O)[C@H](O[C@H]3OC(CN)=CC[C@H]3N)[C@@H](N)C[C@H]2N)OC[C@]1(C)O [SISOMICIN]
- Hepatotoxicity (association with vascular disease) [1]: 0
- Hepatotoxicity (choleostasis) [2]: 0
- Hepatotoxicity (moderate) [3]: 2
- Hepatotoxicity (cytolytic) [4]: 0
- Hepatotoxicity (steatosis) [5]: 0
- Hepatotoxicity (moderate) [6]: 5.7%
- Hepatotoxicity (malignant tumour) [7]: 0
- Hepatotoxicity (chronic liver disease) [8]: 0
- Hepatotoxicity (acute) [9]: 0
- Hepatotoxicity (cirrhosis) [10]: 0
- Hepatotoxicity (granulomatous hepatitis) [11]: 0
- Hepatotoxicity (acute) [12]: 0%
- Hepatotoxicity (benign tumour) [13]: 0
- Hepatotoxicity (severe hepatitis) [14]: 0

SMILES: N[C@@H]1CN(c2c(F)cc3c(=O)c(C(=O)O)cn([C@@H]4C[C@@H]4F)c3c2Cl)CC12CC2 [SITAFLOXACIN ANHYDROUS]
- Hepatotoxicity (association with vascular disease) [1]: 0
- Hepatotoxicity (choleostasis) [2]: 0
- Hepatotoxicity (moderate) [3]: 6
- Hepatotoxicity (cytolytic) [4]: 0
- Hepatotoxicity (steatosis) [5]: 0
- Hepatotoxicity (moderate) [6]: 23.2%
- Hepatotoxicity (malignant tumour) [7]: 0
- Hepatotoxicity (chronic liver disease) [8]: 0
- Hepatotoxicity (acute) [9]: 0
- Hepatotoxicity (cirrhosis) [10]: 0
- Hepatotoxicity (granulomatous hepatitis) [11]: 0
- Hepatotoxicity (acute) [12]: 0%
- Hepatotoxicity (benign tumour) [13]: 0
- Hepatotoxicity (severe hepatitis) [14]: 0

SMILES: Cc1cc2c(cc1CC(=O)c1sccc1S(=O)(=O)Nc1onc(C)c1Cl)OCO2 [SITAXENTAN]
- Hepatotoxicity (association with vascular disease) [1]: 0
- Hepatotoxicity (choleostasis) [2]: 0
- Hepatotoxicity (moderate) [3]: 1
- Hepatotoxicity (cytolytic) [4]: 0
- Hepatotoxicity (steatosis) [5]: 0
- Hepatotoxicity (moderate) [6]: 0%
- Hepatotoxicity (malignant tumour) [7]: 0
- Hepatotoxicity (chronic liver disease) [8]: 0
- Hepatotoxicity (acute) [9]: 0
- Hepatotoxicity (cirrhosis) [10]: 0
- Hepatotoxicity (granulomatous hepatitis) [11]: 0
- Hepatotoxicity (acute) [12]: 0%
- Hepatotoxicity (benign tumour) [13]: 0
- Hepatotoxicity (severe hepatitis) [14]: 0

SMILES: O=c1[nH]c(=O)n([C@@H]2O[C@H](CO)[C@@H](O)[C@@H]2O)cc1/C=C/Br [SORIVUDINE]
- Hepatotoxicity (association with vascular disease) [1]: 0
- Hepatotoxicity (choleostasis) [2]: 0
- Hepatotoxicity (moderate) [3]: 1
- Hepatotoxicity (cytolytic) [4]: 0
- Hepatotoxicity (steatosis) [5]: 0
- Hepatotoxicity (moderate) [6]: 2%
- Hepatotoxicity (malignant tumour) [7]: 0
- Hepatotoxicity (chronic liver disease) [8]: 0
- Hepatotoxicity (acute) [9]: 0
- Hepatotoxicity (cirrhosis) [10]: 0
- Hepatotoxicity (granulomatous hepatitis) [11]: 0
- Hepatotoxicity (acute) [12]: 0%
- Hepatotoxicity (benign tumour) [13]: 0
- Hepatotoxicity (severe hepatitis) [14]: 0

SMILES: C[C@@H]1CN(c2c(F)c(N)c3c(=O)c(C(=O)O)cn(C4CC4)c3c2F)C[C@H](C)N1 [SPARFLOXACIN]
- Hepatotoxicity (association with vascular disease) [1]: 0
- Hepatotoxicity (choleostasis) [2]: 0
- Hepatotoxicity (moderate) [3]: 29
- Hepatotoxicity (cytolytic) [4]: 0
- Hepatotoxicity (steatosis) [5]: 0
- Hepatotoxicity (moderate) [6]: 20%
- Hepatotoxicity (malignant tumour) [7]: 0
- Hepatotoxicity (chronic liver disease) [8]: 0
- Hepatotoxicity (acute) [9]: 0
- Hepatotoxicity (cirrhosis) [10]: 0
- Hepatotoxicity (granulomatous hepatitis) [11]: 0
- Hepatotoxicity (acute) [12]: 0%
- Hepatotoxicity (benign tumour) [13]: 0
- Hepatotoxicity (severe hepatitis) [14]: 0

SMILES: Cc1nc(NS(=O)(=O)c2ccc(N)cc2)oc1C [SULFAMOXOLE]
- Hepatotoxicity (association with vascular disease) [1]: 0
- Hepatotoxicity (choleostasis) [2]: 0
- Hepatotoxicity (moderate) [3]: 0
- Hepatotoxicity (cytolytic) [4]: 0
- Hepatotoxicity (steatosis) [5]: 0
- Hepatotoxicity (moderate) [6]: 0%
- Hepatotoxicity (malignant tumour) [7]: 0
- Hepatotoxicity (chronic liver disease) [8]: 0
- Hepatotoxicity (acute) [9]: 1
- Hepatotoxicity (cirrhosis) [10]: 0
- Hepatotoxicity (granulomatous hepatitis) [11]: 0
- Hepatotoxicity (acute) [12]: 0%
- Hepatotoxicity (benign tumour) [13]: 0
- Hepatotoxicity (severe hepatitis) [14]: 0

SMILES: Nc1ccc(S(=O)(=O)Nc2nccs2)cc1 [SULFATHIAZOLE]
- Hepatotoxicity (association with vascular disease) [1]: 0
- Hepatotoxicity (choleostasis) ([2]; Liver): 0
- Hepatotoxicity (moderate) [3]: 1
- Hepatotoxicity (cytolytic) ([4]; Liver): 0
- Hepatotoxicity (steatosis) [5]: 0
- Hepatotoxicity (moderate) ([6]; Liver): 0%
- Hepatotoxicity (malignant tumour) [7]: 0
- Hepatotoxicity (chronic liver disease) [8]: 0
- Hepatotoxicity (acute) [9]: 0
- Hepatotoxicity (cirrhosis) [10]: 0
- Hepatotoxicity (granulomatous hepatitis) ([11]; Liver): 0
- Hepatotoxicity (acute) ([12]; Liver): 0%
- Hepatotoxicity (benign tumour) [13]: 0
- Hepatotoxicity (severe hepatitis) ([14]; Liver): 0

SMILES: Cc1cc(NS(=O)(=O)c2ccc(N)cc2)nc(C)n1 [SULFISOMIDINE]
- Hepatotoxicity (association with vascular disease) [1]: 0
- Hepatotoxicity (choleostasis) [2]: 0
- Hepatotoxicity (moderate) [3]: 0
- Hepatotoxicity (cytolytic) [4]: 0
- Hepatotoxicity (steatosis) [5]: 0
- Hepatotoxicity (moderate) [6]: 0%
- Hepatotoxicity (malignant tumour) [7]: 0
- Hepatotoxicity (chronic liver disease) [8]: 0
- Hepatotoxicity (acute) [9]: 1
- Hepatotoxicity (cirrhosis) [10]: 0
- Hepatotoxicity (granulomatous hepatitis) [11]: 0
- Hepatotoxicity (acute) [12]: 0%
- Hepatotoxicity (benign tumour) [13]: 0
- Hepatotoxicity (severe hepatitis) [14]: 0

SMILES: CC1(C)S[C@@H]2[C@H](NC(=O)[C@H](N)c3ccccc3)C(=O)N2[C@H]1C(=O)OCOC(=O)[C@@H]1N2C(=O)C[C@H]2S(=O)(=O)C1(C)C [SULTAMICILLIN]
- Hepatotoxicity (association with vascular disease) [1]: 0
- Hepatotoxicity (choleostasis) [2]: 1
- Hepatotoxicity (moderate) [3]: 61
- Hepatotoxicity (cytolytic) [4]: 0
- Hepatotoxicity (steatosis) [5]: 0
- Hepatotoxicity (moderate) [6]: 43%
- Hepatotoxicity (malignant tumour) [7]: 0
- Hepatotoxicity (chronic liver disease) [8]: 0
- Hepatotoxicity (acute) [9]: 1
- Hepatotoxicity (cirrhosis) [10]: 0
- Hepatotoxicity (granulomatous hepatitis) [11]: 0
- Hepatotoxicity (acute) [12]: 0.2%
- Hepatotoxicity (benign tumour) [13]: 0
- Hepatotoxicity (severe hepatitis) [14]: 0

SMILES: Cc1nc(C)c2c(n1)N(Cc1ccc(-c3ccccc3-c3nnn[nH]3)cc1)C(=O)CC2 [TASOSARTAN]
- Hepatotoxicity (association with vascular disease) [1]: 0
- Hepatotoxicity (choleostasis) [2]: 0
- Hepatotoxicity (moderate) [3]: 2
- Hepatotoxicity (cytolytic) [4]: 0
- Hepatotoxicity (steatosis) [5]: 0
- Hepatotoxicity (moderate) [6]: 1.9%
- Hepatotoxicity (malignant tumour) [7]: 0
- Hepatotoxicity (chronic liver disease) [8]: 0
- Hepatotoxicity (acute) [9]: 0
- Hepatotoxicity (cirrhosis) [10]: 0
- Hepatotoxicity (granulomatous hepatitis) [11]: 0
- Hepatotoxicity (acute) [12]: 0%
- Hepatotoxicity (benign tumour) [13]: 0
- Hepatotoxicity (severe hepatitis) [14]: 0
